In patent publication US11053190B2, “Alpha-aminoamide derivative compound and pharmaceutical composition comprising same” (NEUROBIOGEN CO., LTD., priority 2014, dated 2021):
Like-named read-outs stand apart in the source and are kept apart here.

What was measured:
[1] = target: T1, human-derived monoamine oxidase B (Homo sapiens, UniProt P27338); assay: Effect of inhibiting activity of monoamine oxidase B (MAO-B assay); assay type: biochemical; conditions: Amplex Red, benzylamine substrate
T1 sequence (P27338 1-520): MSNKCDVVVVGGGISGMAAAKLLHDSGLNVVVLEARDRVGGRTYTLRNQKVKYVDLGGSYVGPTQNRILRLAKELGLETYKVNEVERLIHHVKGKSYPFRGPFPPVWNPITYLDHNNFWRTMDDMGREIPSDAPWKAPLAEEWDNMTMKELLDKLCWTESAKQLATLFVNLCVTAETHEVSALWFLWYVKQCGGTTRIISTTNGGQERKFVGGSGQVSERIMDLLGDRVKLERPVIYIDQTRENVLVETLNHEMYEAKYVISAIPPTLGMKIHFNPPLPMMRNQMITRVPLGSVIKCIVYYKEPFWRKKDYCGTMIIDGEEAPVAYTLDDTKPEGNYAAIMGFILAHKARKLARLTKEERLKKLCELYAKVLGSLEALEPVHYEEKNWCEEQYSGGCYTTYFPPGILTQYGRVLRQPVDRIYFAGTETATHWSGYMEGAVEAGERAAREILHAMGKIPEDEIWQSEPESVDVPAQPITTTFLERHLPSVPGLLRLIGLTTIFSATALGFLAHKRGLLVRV

MAO-A = target: T2, MAO-A (Homo sapiens, UniProt P21397); assay: MAO-A inhibition (Table 1); assay type: biochemical
T2 sequence (P21397 1-527): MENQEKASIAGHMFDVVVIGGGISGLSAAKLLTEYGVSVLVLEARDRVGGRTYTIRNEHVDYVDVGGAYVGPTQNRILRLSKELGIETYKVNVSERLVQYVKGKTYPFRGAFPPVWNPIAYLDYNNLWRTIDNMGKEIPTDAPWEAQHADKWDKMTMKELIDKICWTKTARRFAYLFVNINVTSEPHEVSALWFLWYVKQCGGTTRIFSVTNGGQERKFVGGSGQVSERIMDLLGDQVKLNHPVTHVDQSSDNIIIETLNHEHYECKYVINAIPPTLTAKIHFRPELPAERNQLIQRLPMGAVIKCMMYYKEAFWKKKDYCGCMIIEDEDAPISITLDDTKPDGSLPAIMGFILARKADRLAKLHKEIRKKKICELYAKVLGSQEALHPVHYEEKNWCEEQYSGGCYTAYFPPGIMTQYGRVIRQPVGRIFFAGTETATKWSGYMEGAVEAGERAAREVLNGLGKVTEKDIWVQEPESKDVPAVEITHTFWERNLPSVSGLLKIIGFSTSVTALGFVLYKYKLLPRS

[2] = target: T1, human-derived monoamine oxidase B; assay: Confirmation of reversible inhibitory effect (washing in centrifugal filter); assay type: biochemical
APP/PS1 mouse [3] = assay: APP/PS1 mouse model of Alzheimer's disease, spike probability of dentate gyrus granule cells; assay type: in vivo; conditions: 2 weeks in drinking water
[4] = test system: dopaminergic neurons in the substantia nigra and the corpus striatum; assay: MPTP mouse model of Parkinson's disease, TH (tyrosine hydroxylase) immunohistochemistry; assay type: in vivo; conditions: for dopaminergic neuron survivability (TH expression), pre-treatment: from one day before MPTP 20 mg/kg i.p., FIG. 2a
[5] = test system: DGGCs (dentate gyrus granule cells) of the hippocampus; assay: Inhibition of channel excitability, electrophysiology; assay type: cell-based; conditions: FIG. 4
From the text: In order to investigate the channel inhibitory effect, inhibition of channel excitability was investigated electrophysiologically using DGGCs (dentate gyrus granule cells) of the hippocampus.

obesity model mouse = assay: HFD (high-fat diet) mouse model of obesity; assay type: in vivo
Description: 7-week-old mice were divided into 2 groups and were given a normal diet (white, chow) and a high-fat diet (blue, HFD), respectively, for 8 weeks.
The total calorie provided to the normal diet mice and the high-fat diet mice was set to be equal. The average body weight of the normal diet group was measured to be […] at 8 weeks, with about 20% increase from the initial weight of […]. In contrast, the average body weight of the high-fat diet almost doubled to about […].
In addition to the increase in reactive astrocytes, overproduction of γ-aminobutyric acid (GABA) was also detected.

APP/PS1 mouse [6] = conditions: Jo et al., Nature Medicine 2014, cited from earlier work
[7] = 10 mg/kg oral, treated from day 3 after MPTP, FIG. 2b
[8] = administration for 30 days, FIG. 2c

C[C@H](NCc1ccc(-c2ccccc2F)cc1)C(N)=O [Example 1, (S)-2-(((2′-fluorobiphenyl-4-yl)methyl)amino) propanamide methanesulfonate]
IC50 [1]: > 10 µM

C[C@H](NCc1ccc(-c2cccc(F)c2)cc1)C(N)=O [Example 2, (S)-2-(((3′-fluorobiphenyl-4-yl)methyl)amino) propanamide methanesulfonate]
IC50 [1]: > 10 µM

C[C@H](NCc1ccc(-c2ccc(F)cc2)cc1)C(N)=O [Example 3, (S)-2-(((4′-fluorobiphenyl-4-yl)methyl)amino) propanamide methanesulfonate]
IC50 [1]: > 10 µM

C[C@H](NCc1ccc(-c2ccccc2Cl)cc1)C(N)=O [Example 4, (S)-2-(((2′-chlorobiphenyl-4-yl)methyl)amino) propanamide methanesulfonate]
IC50 (MAO-A): > 100 µM | IC50 [1]: > 10 µM

C[C@H](NCc1ccc(-c2cccc(Cl)c2)cc1)C(N)=O [Example 5, (S)-2-(((3′-chlorobiphenyl-4-yl)methyl)amino) propanamide methanesulfonate]
IC50 (MAO-A): > 100 µM | IC50 [1]: 0.442 µM

C[C@H](NCc1ccc(-c2ccc(Cl)cc2)cc1)C(N)=O [Example 6, (S)-2-(((4′-chlorobiphenyl-4-yl)methyl)amino) propanamide methanesulfonate]
IC50 (MAO-A): > 100 µM | IC50 [1]: 0.416 µM

C[C@H](NCc1ccc(-c2ccc(C(F)(F)F)cc2)cc1)C(N)=O [Example 9, (S)-2-(((4′-trifluoromethylbiphenyl-4-yl)methyl)amino) propanamide methanesulfonate]
Reversibility ([2]; 1 μM): Reversible | Recovered MAO-B activity ([2]; 1 μM, after washing): >85% | inhibition at 1 µM ([2]; after centrifugal filter and washing with buffer (B), read-out: B. MAO-B inhibition effect): < 15% | inhibition at 1 µM ([2]; without washing (A), read-out: A. MAO-B inhibition effect): 82% | IC50 (MAO-A): > 500 µM | efficacy (spike probability) compared with safinamide (APP/PS1 mouse [3]): higher than that of safinamide | spike probability depending on stimulus intensity (APP/PS1 mouse [3]; FIG. 3b): superior efficacy was observed | dopaminergic neuron survivability (TH expression), pre-treatment ([4]; 10 mg/kg oral): dopaminergic neuron survivability comparable to that of the control group | death of dopaminergic neurons, post-treatment [4, 7]: significantly decreased death of the neurons | recovery of dopaminergic neurons in the substantia nigra, post-treatment ([4]; 10 mg/kg oral, treated from day 3 after MPTP, substantia nigra, FIG. 2b): recovered the dopaminergic neurons in the substantia nigra to a level comparable to that of the control group not treated with MPTP | protection of dopaminergic neurons in the corpus striatum, 30-day administration [4, 8]: protected dopaminergic neurons to a level comparable to that of the control group not treated with MPTP | protection of dopaminergic neurons in the substantia nigra, 30-day administration ([4]; administration for 30 days, substantia nigra, FIG. 2c): protected neurons similarly to the control group | overall efficacy in the three tests on the MPTP mouse model ([4]; compared with selegiline and safinamide): superior efficacy as compared to selegiline and safinamide | excitability inhibitory effect ([5]; 10 μM): almost no inhibitory effect | excitability inhibitory effect ([5]; 50 μM): lower inhibitory effect than safinamide | body weight increase due to high-fat diet (obesity model mouse; 10 mg/kg/day and 100 mg/kg/day groups, FIG. 8): inhibited body weight increase due to the intake of the high-fat diet in a concentration-dependent manner | amount of food intake (obesity model mouse; high-fat diet mice, FIG. 8): no difference in the amount of food intake | GFAP (biomarker for reactive astrocytes) in the arcuate nucleus (obesity model mouse; high-fat diet mice, FIG. 9): Remarkable decrease in GFAP | overproduction of GABA in the arcuate nucleus (obesity model mouse; high-fat diet mice, FIG. 9): effective inhibition of the overproduction of GABA

C[C@H](NCc1ccc(-c2cccc(OC(F)(F)F)c2)cc1)C(N)=O [Example 10, (S)-2-(((3′-trifluoromethoxybiphenyl-4-yl)methyl)amino)propanamide methanesulfonate]
IC50 (MAO-A): > 100 µM | IC50 [1]: 0.216 µM

C[C@H](NCc1ccc(-c2ccc(OC(F)(F)F)cc2)cc1)C(N)=O [Example 11, (S)-2-(((4′-trifluoromethoxybiphenyl-4-yl)methyl)amino)propanamide methanesulfonate]
IC50 (MAO-A): > 100 µM | IC50 [1]: 0.098 µM

COc1cccc(-c2ccc(CN[C@@H](C)C(N)=O)cc2)c1 [Example 12, (S)-2-(((3′-methoxybiphenyl-4-yl)methyl)amino)propanamide methanesulfonate]
IC50 (MAO-A): > 100 µM | IC50 [1]: 3.33 µM

COc1ccc(-c2ccc(CN[C@@H](C)C(N)=O)cc2)cc1 [Example 13, (S)-2-(((4′-methoxybiphenyl-4-yl)methyl)amino)propanamide methanesulfonate]
IC50 (MAO-A): > 100 µM | IC50 [1]: 1.06 µM

C[C@@H](NCc1ccc(-c2cccc(F)c2)cc1)C(N)=O [Example 14, methanesulfonate]
IC50 (MAO-A): > 100 µM | IC50 [1]: > 10 µM

C[C@@H](NCc1ccc(-c2ccc(C(F)(F)F)cc2)cc1)C(N)=O [Example 15, (R)-2-(((4′-trifluoromethylbiphenyl-4-yl)methyl)amino)propanamide methanesulfonate]
IC50 (MAO-A): > 100 µM

NC(=O)CNCc1ccc(-c2ccc(C(F)(F)F)cc2)cc1 [Example 16, (R)-2-(((4′-trifluoromethylbiphenyl-4-yl)methyl)amino)acetamide methanesulfonate]
IC50 (MAO-A): > 100 µM | IC50 [1]: 0.126 µM

CC(C)[C@@H](NCc1ccc(-c2ccc(C(F)(F)F)cc2)cc1)C(N)=O [Example 17, (R)-3-methyl-2-(((4′-trifluoromethylbiphenyl-4-yl)methyl)amino)butanamide methanesulfonate]
IC50 (MAO-A): > 100 µM | IC50 [1]: 4.07 µM

CC(C)C[C@@H](NCc1ccc(-c2ccc(C(F)(F)F)cc2)cc1)C(N)=O [Example 18, (R)-4-methyl-2-(((4′-trifluoromethylbiphenyl-4-yl)methyl)amino)pentanamide methanesulfonate]
IC50 (MAO-A): > 100 µM | IC50 [1]: 5.3 µM

C[C@H](NCc1ccc(OCc2cccc(F)c2)cc1)C(N)=O [S-Safinamide, Safinamide, reference compound]
efficacy in the Alzheimer's disease model after 2 weeks (APP/PS1 mouse [6]): maintains excellent efficacy | dopaminergic neuron survivability (TH expression), pre-treatment ([4]; 10 mg/kg oral): dopaminergic neuron survivability comparable to that of the control group | death of dopaminergic neurons, post-treatment [4, 7]: significantly decreased death of the neurons | protection of dopaminergic neurons in the corpus striatum, 30-day administration [4, 8]: slightly lower efficacy | inhibition at 10 µM ([5]; 10 μM, read-out: excitability inhibitory effect): ~40%

C#CCN(C)[C@H](C)Cc1ccccc1 [Selegiline]
efficacy in the Alzheimer's disease model after 2 weeks (APP/PS1 mouse [6]): the efficacy decreases greatly | efficacy in the Alzheimer's disease model after 4 weeks (APP/PS1 mouse [6]; after 4 weeks): no efficacy is observed | efficacy in the Alzheimer's disease model, initially (APP/PS1 mouse [6]; initial): excellent efficacy initially
